Source: ChEMBL document CHEMBL2094269, “WEHI/Eskitis Trypanosoma b. brucei screening data”
“And” between values parts separate entries of the source, which are not always exact repeats. Identical values can stand only once.

Tests used:
[1] = tested on: Trypanosoma brucei brucei; test: microbe, parasite or virus in culture; type: functional, organism-based, STIB 795
Description: DNDI: Inhibition of Human African Trypanosomiasis (HAT), STIB 795, in vitro

[2] = DNDI: Cytotoxicity against human MRC-5 lung fibroblast cells.; conditions: IC50

SMILES	IC50 ([1]; Trypanosoma brucei, STIB 795)	IC50 [1]	IC50 [2]
CC[n+]1c(/C=C/c2ccc(N(C)C)cc2)sc2cc(NC(C)=O)ccc21	0.049 µM		> 20.8 µM
NC1CCCc2c1[nH]c1ccc(Cl)cc21 (configuration not stated)		0.823 µM and 2.29 µM	> 20.8 µM
Cc1cc(-c2ccco2)c(C#N)c(SCC(=O)c2ccc(O)c(O)c2)n1	0.791 µM	0.756 µM	> 41.7 µM
CC(=O)Nc1ccc(C)cc1S(=O)(=O)NCCn1c(C)nc2ccccc21	4.83 µM		> 41.7 µM
Cc1ccc(Cn2cc(CCC(=O)NCCN3CCCC3)c3ccccc32)cc1	3.3 µM		> 20.8 µM
CN1C=C/C(=C\C=C2/C=Nc3ccccc32)c2ccccc21	0.311 µM		> 4.17 µM
CCN1/C(=C/c2cccc[n+]2C)C=Cc2cc(C)ccc21	0.909 µM		> 20.8 µM
CN(C)CCCC1(O)c2ccccc2C2(CC2)c2ccccc21	0.436 µM		> 10.4 µM
Nc1ccc2c(c1)C(=O)C(=O)c1cc(N)ccc1-2	0.975 µM		> 20.8 µM
Cn1ccnc1Sc1cnn(-c2ccccc2)c(=O)c1Cl	5.27 µM		> 20.8 µM
Cc1cc(C2=CC(C)(C)NC(C)(C)C2)sc1C1=CC(C)(C)NC(C)(C)C1	4.82 µM		> 41.7 µM
Oc1c(CN2CCC(Cc3ccccc3)CC2)cc(Cl)c2cccnc12	4.68 µM		> 20.8 µM
Oc1c(/C=N/NC(=S)Nc2cccc(F)c2)cc2c3c1CCCN3CCC2	3.08 µM		> 41.7 µM
CC1CCN(Cc2cc(Br)c(O)c3ncccc23)CC1	1.63 µM		5.36 µM
CC(C)(C)c1ccc(Cn2c(=N)n(CCO)c3ccccc32)cc1	4.96 µM		> 41.7 µM
CCc1ccccc1-n1c(=O)oc2ccc(Cl)cc2c1=O	5.13 µM		> 4.17 µM
N=C(N)N/N=C(\c1ccc(Cl)cc1)c1ccc(Cl)s1	≤ 2.46 µM		> 4.17 µM
CCN(Cc1ccccc1)S(=O)(=O)c1ncn[nH]1	3.38 µM		> 41.7 µM
CC1(C)CC(=O)c2sc(NC(=O)c3sc4ccccc4c3Cl)nc2C1	0.442 µM		> 41.7 µM
COc1ccc(C2=NNc3cccc4c(OC)ccc2c34)cc1OC	5.58 µM	5.38 µM	> 41.7 µM
CCS(=O)(=O)N1CCCc2ccc(NS(=O)(=O)c3cccs3)cc21	0.796 µM		> 41.7 µM

SMILES	IC50 ([1]; Trypanosoma brucei, STIB 795)	IC50 [1]	IC50 [2]
CC(NCCC(c1ccccc1)C1CCOC(C)(C)C1)c1ccccc1 (configuration not stated)	4.93 µM		> 41.7 µM
CC(C)(C)c1cc(C(c2ccccn2)N2CCOCC2)cc(C(C)(C)C)c1O (configuration not stated)	10.6 µM		> 41.7 µM
C=CCn1c(=N)n(CC(O)COc2ccccc2C)c2ccccc21 (configuration not stated)	0.72 µM		> 20.8 µM
COc1cc(-n2nnn(C3CC(=O)C4OCC3O4)c2=S)c(OC)cc1Cl (configuration not stated)		> 10.4 µM and 4.74 µM	> 20.8 µM
NC1c2ccccc2CC1Cc1ccc(Cl)cc1Cl (configuration not stated)	5.23 µM		> 20.8 µM
O=C1c2cccc3cccc(c23)C(=O)N1CCNCCO	4.5 µM		> 4.17 µM
Cc1cccc(C(=N)NOC(=O)c2ccoc2C)c1	0.338 µM		> 10.4 µM
CC(CON1C(N)=NC(N)=NC1(C)C)Cc1cccc(Br)c1 (configuration not stated)	≤ 3.67 µM		> 4.17 µM
Cc1cc(C)c2nc(C)cc(Nc3cccc(O)c3)c2c1	4.93 µM		> 20.8 µM
Cn1c2ccccc2c2nnc(N/N=C/c3ccccn3)nc21	0.52 µM		> 1.04 µM
NC1=NC(CCc2ccccc2)N(OCCCc2ccccc2)C(N)=N1 (configuration not stated)	≤ 2.78 µM		> 4.17 µM
CCCCn1c(=N)n(CC(O)c2ccc(Br)cc2)c2ccccc21 (configuration not stated)	5.24 µM	5.32 µM	> 20.8 µM
Cc1cc(C)c2nc(C)cc(Nc3ccc4c(c3)OCCO4)c2c1	3.91 µM		> 41.7 µM
c1ccc2c(OCCCCCCNCC3CCCO3)cccc2c1 (configuration not stated)	5.25 µM		> 41.7 µM
Cc1cc(NC2CCCCC2)nc(NCc2ccccc2)n1	4.49 µM		> 41.7 µM
Cc1cc(C)n(-c2ccc3c(Cl)cc(Cl)c(O)c3n2)n1	4.79 µM		> 41.7 µM
COC(=O)c1ccccc1N/N=C1\C(=N)ON=C1N	0.41 µM		> 41.7 µM
COc1cccc2c(N)c3c(cnn3C)nc12	1.21 µM		> 4.17 µM
CCN(CC)CCn1nc2c3c(cccc3c1=O)-c1ccccc1-2	1.58 µM		1.46 µM
O=S1(=O)CCC(N2COc3c(cc(Cl)c4cccnc34)C2)C1 (configuration not stated)	5.09 µM		> 4.17 µM
CCN1/C(=C/C=C/C2=[N+](C)c3ccc(C)cc3C2(C)C)C=Cc2ccccc21	0.239 µM		> 4.17 µM

SMILES	IC50 ([1]; Trypanosoma brucei, STIB 795)	IC50 [1]	IC50 [2]
CN(C)c1ccc(/C=C/c2cc(-c3ccccc3)o[n+]2C)cc1	0.133 µM		> 2.08 µM
CCOC(=O)c1ccc(CCCCCON2C(N)=NC(N)=NC2(C)C)cc1	1.05 µM		> 1.04 µM
CN(C)CCCC1c2ccccc2Sc2ccc(Cl)cc2C1O (configuration not stated)	5.87 µM		> 20.8 µM
CN1CCN(C2Cc3ccc(F)cc3Sc3ccc(O)cc32)CC1 (configuration not stated)	2.61 µM		> 41.7 µM
Oc1c(Cl)cc(CN2CCCC2)c2cccnc12	4.32 µM		> 4.17 µM
CCCCC1=NN(C(=O)c2ccccn2)C(O)(C(F)(F)F)C1 (configuration not stated)	5.4 µM		> 20.8 µM
CC(C)(C)c1ccc(/C=N/n2cnnc2)cc1	0.49 µM		> 41.7 µM
C=CCS(=O)(=O)c1nc2ccccc2s1	5.73 µM		> 20.8 µM
Cc1ccc([S@+]([O-])/C(F)=C\c2ccccn2)cc1	0.903 µM		5.57 µM
CN(C)CCNC(=O)c1ccc(COc2ccc(Cl)cc2Cl)cc1	3.41 µM		> 20.8 µM
Cc1ccc(-n2nnnc2CNC(=O)c2cccs2)cc1C	5.85 µM		> 41.7 µM
N#Cc1ccc(-c2ccncc2)nc1SCCN1CCCCC1	7.34 µM		> 41.7 µM
C/C(=C\c1ccccc1)c1nc2c(=O)n(C)c(=O)nc-2n(C)n1	5.62 µM		> 20.8 µM
CCOC(=O)c1ccc(CN2C(=O)C(=O)c3cc(OC(F)(F)F)ccc32)o1	4.03 µM		> 20.8 µM
COc1ccc(-n2nc(N3CCCC(C(=O)NC4CCCC4)C3)ccc2=O)cc1 (configuration not stated)	2.28 µM		> 41.7 µM
COC(=O)C(NC(=O)c1c(Cl)sc2nnsc12)C(C)C (configuration not stated)	4.12 µM		> 4.17 µM
COc1ccc2[nH]c(C)c(CCNCc3cn(C)c4ccccc34)c2c1	4.74 µM		> 20.8 µM
CCCCc1ccc(NC(=S)NC2CC(C)(C)NC(C)(C)C2)cc1	2.74 µM		> 20.8 µM
CN(C)CCCNc1nn2c(=O)c3ccccc3nc2c2ccccc12	5.39 µM		> 4.17 µM

Second part, led by results:

IC50 ([1]; Trypanosoma brucei, STIB 795)	IC50 [1]	SMILES	IC50 [2]
5.33 µM		Nc1nonc1C(=O)N/N=C/c1c(O)ccc2ccccc12	> 4.17 µM
1.92 µM		C/C(=N\NC(=O)c1cccc(I)c1)c1ccc(O)cc1O	3.73 µM
5.07 µM		N=C(N)n1nc(-c2ccccc2)cc1-c1ccccc1O	> 20.8 µM
0.077 µM		CN1/C(=C/C=C/c2ccc3ccccc3[n+]2C)C=Cc2ccccc21	> 10.4 µM
3 µM		N=C(N)N/N=C(/C=C(\c1ccc(Cl)cc1)n1ccnc1)c1ccc(Cl)cc1	> 10.4 µM
3.74 µM		CN(C)CCCNc1nc(-c2ccc(Cl)cc2)nc2ccccc12	> 20.8 µM
5.68 µM		COc1ccccc1C(NC(=O)c1ccccc1)c1ccc2cccnc2c1O (configuration not stated)	> 10.4 µM
1.2 µM		O=C(c1ccccc1)c1ccc(O)c(O)c1	> 41.7 µM
3.82 µM	7.34 µM	CCN(CC)c1ccc(/C=N/NC(=O)c2ccncc2)c(O)c1	> 4.17 µM
5.18 µM		O=C(NNc1cccccc1=O)c1ccccc1	> 10.4 µM
5.18 µM		Cc1c(-c2cccc(NC(=O)c3cccs3)c2)nc2ncccn12	> 41.7 µM
0.718 µM		c1ccc(Nc2nc(-c3ccccn3)cs2)nc1	> 10.4 µM
0.245 µM		Cc1cc(C)nc(C(=N)Nc2nc(-c3ccccn3)cc3ccccc23)n1	0.216 µM
5.39 µM		Cc1cc(C)nc(NC(c2ccco2)c2ccc3cccnc3c2O)n1 (configuration not stated)	> 41.7 µM
2.87 µM		O=S1(=O)Nc2c(ccc3cccnc23)-c2ccccc21	> 20.8 µM
0.086 µM		CCN1C=Cc2ccccc2/C1=C\c1ccc2ccccc2[n+]1CC	> 4.17 µM
0.516 µM		O=C(CC(Sc1cccc2cccnc12)c1ccc(F)cc1)c1cccs1 (configuration not stated)	> 20.8 µM

IC50 ([1]; Trypanosoma brucei, STIB 795)	IC50 [1]	SMILES	IC50 [2]
6.86 µM		COCC(=O)N/N=C/c1ccc(SCC(=O)Nc2ccc3ccccc3c2)o1	> 41.7 µM
1.37 µM		COc1ccc(C2=NC3(CCN(C(C)C)CC3)NC(c3ccccc3O)C2)cc1 (configuration not stated)	> 20.8 µM
4.44 µM		O=C(N/N=C/c1sc2ccccc2c1O)c1ccc(O)cc1O	> 4.17 µM
0.206 µM		COc1ccc(-c2cc(-c3ccccc3)c(C#N)c([S+](C)[O-])n2)cc1 (configuration not stated)	> 41.7 µM
2.68 µM		O=C(N/N=C/c1c(O)ccc2ccccc12)c1cc[nH]n1	> 20.8 µM
0.655 µM		CC(=O)NC(c1ccccc1C)c1ccc2cccnc2c1O (configuration not stated)	> 1.04 µM
4.02 µM		COc1ccccc1C(=O)Nc1ccccc1Sc1cc(C)nc2ncnn12	> 41.7 µM
1.76 µM		O=C(N/N=C(\c1ccccc1)c1ccccn1)c1ccccc1Cl	> 4.17 µM
1.74 µM		O=C(NNC(=O)c1ccccn1)c1cccc(Br)c1	> 4.17 µM
0.827 µM		O=C(CC(Nc1ccc2ccccc2c1)c1ccncc1)c1cccnc1 (configuration not stated)	> 41.7 µM
3.77 µM		O=C(N/N=C/c1c(O)ccc2ccccc12)c1cc(Br)ccc1O	> 4.17 µM
5.52 µM		NC(=O)c1ccc(Nc2ccccc2)[nH]c1=O	5.28 µM
0.416 µM		CC[n+]1c(/C=C2\SC=C(c3ccccc3)N2C)ccc2cc(C)ccc21	> 10.4 µM
7.04 µM		COc1ccc(-c2nc(Nc3ccc(F)cc3F)c3ccccc3n2)cc1OC	> 41.7 µM
5.83 µM		CCN1CCN(C(c2cccnc2)c2cc(Cl)c3cccnc3c2O)CC1 (configuration not stated)	> 41.7 µM
7.88 µM		O=C(COc1ccccc1)N/N=C/c1sc2ccccc2c1O	> 20.8 µM
